These results are taken from US12686855B2, “Generation of pancreatic endoderm from stem cell derived definitive endoderm” (ASPECT BIOSYSTEMS LTD., priority 2019, dated 2026).

In general, Kd refers to the concentration at which binding is half-saturated.

Assay [1] relates to definitive endoderm cells derived from human pluripotent stem cells (hES line SA121). Put plainly: Differentiation of definitive endoderm to pancreatic endoderm, flow cytometry (FACS) at PE stage. It counts as cell-based. As for the experimental part:
(§1) Human embryonic stem (hES) cells line SA121 (Cellectis) are expanded in DEF-CS culture medium (Takara BIO Europe) in fibronectin (Sigma) coated culture flasks (Corning) with 30 ng/ml bFGF (Peprotech) and 10 ng/ml noggin (Peprotech). Cells are single cell passaged with 10 μM Rock inhibitor Y-27632 (Sigma #Y0503) and seeded in shaker flasks or bioreactors (DASBOX, DASGIP, Eppendorf) at a density of 0.5-1 mio/ml and allowed to form clusters under constant stirring conditions.
(§2) After 1-3 days in DEF-CS medium with daily medium change, the clusters are differentiated to DE as described in WO2012/175633 (which is incorporated herein by reference in its entirety). The cell clusters are washed once in RPM11640 (Gibco #61870) and treated with 2-7 μM CHIR99021 (Axon #1386) in RPM11640. After 24 hours the cells were washed with RPM11640 and treated with 25-100 ng/ml Activin A (Peprotech #120-14E) and 2% B27 (Invitrogen #17504-044) in RPM11640 for 3 days with medium change every 24 or 48 hours. Cells are maintained at 37° C. and 5% CO2 in a humidified shaker incubator (Infors) during the differentiation to DE, or in a bioreactor system (DASBOX, DASGIP, Eppendorf).
(§3) Medium was changed daily or every other day. At the end of PE differentiation clusters were analysed by flow cytometry or gene expression analysis (Nanostring). 10 μM AGN193109 (Tocris 5758) was added to the LDN stage of PE differentiation, whereas the remaining part of the protocol was unchanged.
In general terms: A flow cytometer gives signals particle by particle.

The test system is the same in assay [2]. The assay is described as follows: Differentiation of definitive endoderm to pancreatic endoderm, gene expression analysis (Nanostring) on PE10. The format is cell-based. Conditions: treatment on PE2-3, vs standard protocol. As for the experimental part: as §1, §2, §3
Assay [3] relates to human ES cell or human iPS cell derived PE clusters. The assay is described as follows: Further differentiation of PE clusters to beta cell like cells, flow cytometry on Cpep/Nkx6.1 and glucagon. It counts as cell-based. Conditions: for Cpep/Nkx6.1 double positive: extended in vitro culture. From the text: The human ES cell or human iPS cell derived PE clusters are washed and further differentiated to endocrine progenitors (EP) and beta cell like cells (BC), using protocols for endocrine and beta cell induction, as described in WO2015/028614, WO2017/144695 and WO/2019/048690, which are all incorporated herein by reference in their entirety.
At the end of BC differentiation clusters were sampled, dissociated to single cells with TrypLE-Select (Gibco 12563-011), fixed in 10% formalin, stained with Cpep/Nkx6.1 and glucagon and analyzed by flow cytometry.

Assay [4] has as its system differentiated cells at the beta cell stage. The assay is described as follows: Transplantation of differentiated cells at the beta cell stage, immunohistochemistry and quantitative image analysis. It counts as in vivo. Conditions: 8 weeks after transplantation.
For assay [5], the target named is T1, RARα (Homo sapiens, UniProt P10276).
T1 sequence (P10276 1-462): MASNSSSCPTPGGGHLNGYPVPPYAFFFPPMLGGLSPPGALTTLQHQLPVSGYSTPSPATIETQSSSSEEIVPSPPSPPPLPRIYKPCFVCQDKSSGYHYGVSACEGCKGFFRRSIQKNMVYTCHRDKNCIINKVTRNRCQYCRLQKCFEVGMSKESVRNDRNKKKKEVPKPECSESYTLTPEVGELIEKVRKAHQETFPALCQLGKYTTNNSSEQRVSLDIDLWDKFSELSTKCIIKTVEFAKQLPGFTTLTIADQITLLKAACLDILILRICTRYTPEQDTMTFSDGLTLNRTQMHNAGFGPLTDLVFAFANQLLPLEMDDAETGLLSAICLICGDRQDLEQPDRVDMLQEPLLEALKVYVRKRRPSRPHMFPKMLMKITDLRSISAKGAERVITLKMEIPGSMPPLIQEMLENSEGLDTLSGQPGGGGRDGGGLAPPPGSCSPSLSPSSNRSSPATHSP
Conditions: cited from earlier work.

Assay [6] addresses T2, RARβ (Homo sapiens, UniProt P10826).
T2 sequence (P10826 1-455): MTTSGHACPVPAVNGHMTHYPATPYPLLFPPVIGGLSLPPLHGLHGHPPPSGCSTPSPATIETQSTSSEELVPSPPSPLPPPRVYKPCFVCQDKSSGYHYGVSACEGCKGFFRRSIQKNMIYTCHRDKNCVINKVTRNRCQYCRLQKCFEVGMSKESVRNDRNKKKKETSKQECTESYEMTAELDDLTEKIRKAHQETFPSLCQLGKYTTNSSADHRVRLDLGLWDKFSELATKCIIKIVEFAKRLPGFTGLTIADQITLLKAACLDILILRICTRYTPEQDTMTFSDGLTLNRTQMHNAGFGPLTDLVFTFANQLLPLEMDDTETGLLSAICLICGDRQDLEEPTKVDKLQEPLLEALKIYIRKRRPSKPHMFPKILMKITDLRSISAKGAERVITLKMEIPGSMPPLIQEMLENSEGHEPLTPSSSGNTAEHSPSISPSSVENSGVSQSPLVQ
To be noted: cited from earlier work.

Assay [7] deals with T3, RARγ (Homo sapiens, UniProt P13631).
T3 sequence (P13631 1-454): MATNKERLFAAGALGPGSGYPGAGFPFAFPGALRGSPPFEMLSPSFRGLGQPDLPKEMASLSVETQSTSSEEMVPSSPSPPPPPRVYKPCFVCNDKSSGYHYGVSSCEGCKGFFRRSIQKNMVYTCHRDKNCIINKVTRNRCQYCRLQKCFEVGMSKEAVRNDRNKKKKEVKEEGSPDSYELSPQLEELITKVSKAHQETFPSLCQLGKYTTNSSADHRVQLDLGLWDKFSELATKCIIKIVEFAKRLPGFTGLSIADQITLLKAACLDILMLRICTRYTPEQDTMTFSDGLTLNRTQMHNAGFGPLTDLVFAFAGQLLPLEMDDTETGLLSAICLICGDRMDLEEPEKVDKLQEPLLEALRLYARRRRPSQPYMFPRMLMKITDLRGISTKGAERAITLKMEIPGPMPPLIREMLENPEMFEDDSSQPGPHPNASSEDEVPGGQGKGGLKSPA
Conditions: cited from earlier work.

Assay [8] deals with T1, RARα. To be noted: RARα transfected CV-1 cells; equal molar AGN 193109 against ATRA; cited from earlier work.
In assay [9] the target is T2, RARβ. Conditions: RARβ transfected CV-1 cells; equal molar AGN 193109 against ATRA; cited from earlier work.
Assay [10] concerns the target T3, RARγ. Conditions: RARγ transfected CV-1 cells; equal molar AGN 193109 against ATRA; cited from earlier work.
Assay [11] relates to definitive endoderm cells derived from human pluripotent stem cells (hES line SA121). The assay is described as follows: Differentiation of definitive endoderm to pancreatic endoderm, flow cytometry (FACS) at PE stage. It counts as cell-based. To be noted: PE10.
Setting [12] is: treatment on PE2-3, PE10, standard protocol 52%, FIG. 4.

Take `Cc1ccc(C2=CCC(C)(C)c3ccc(C#Cc4ccc(C(=O)O)cc4)cc32)cc1` [AGN193109]: the Pdx1/Nkx6.1 double positive result is “at least 70%” in [1] (10 μM for last 2 days of LDN stage (PE2-3), PE10, standard condition around 40%, FIGS. 1A,B); 82.2% in [1] (1 L bioreactors (DASgip, Eppendorf), 10 μM on PE2-3, PE10, standard protocol 58.4%, not run in parallel); 76.9% in assay [1] (setting [12]). Also, the “Pdx1/Nkx6.1 double negative cells” value in assay [1] (10 μM on PE2-3, PE10) is “less than 10%”. Further, the “effect on PE induction (Pdx1/Nkx6.1 double positive) of extending addition from 2 to 4 days in the LDN stage” value in assay [1] (10 μM, PE10, FIG. 6A) is “without any negative effect”. For the same compound, the “DLK1 expressing pancreatic endoderm (flow cytometry)” value in [1] (added on PE2-3, PE11, standard 13%) worked out at 31%. In assay [1] (rescue of suboptimal PE differentiation, standard 20%, PE10), the “Pdx1/Nkx6.1 double positive cells” value is given as 75%. Moreover, the “percentage of Nkx2.2 positive cells at the PE stage” value in assay [1] (treatment on PE2-3, PE10, control 2.9%) is listed as “less than 1%”. Also, the CPA1 expression entry in [2] was “increase”. The DLK1 expression result in assay [2] is “increase”. Moreover, the NeuroD expression result in assay [2] is listed as “lower expression”. Also, the Ngn3 expression entry in assay [2] is “lower expression”. For the same compound, the PTF1A expression result in assay [2] is on record as “increase”. Besides, the “Cpep/Nkx6.1 double positive beta like cells” value in [3] (AGN193109 in LDN stage (PE2-3), BC6-9, standard around 35%) is given as “around 50%”. Also, in assay [3] (AGN193109 in LDN stage, BC stage, FIG. 7B), the Glucagon positive cells entry is given as “not accompanied by an increase”. For the same compound, the Cpep/Nkx6.1 double positive was 59% in assay [3] (BC day 6, standard protocol 53%) and 57% in assay [3] (BC day 13, standard protocol 27%). Also, the “beta to alpha cell ratio (fraction of insulin positive cells relative to glucagon positive cells)” value in assay [4] is listed as “higher”. Moreover, the Kd on RARα [5], at RARβ [6] and on RARγ [7] was 2 nM in each case. Further, the “antagonism of ATRA-induced transcription” value on RARα [8] is 85%; on RARβ [9], 62%; on RARγ [10], 100%. Also, the “Pdx1-only positive cells with increasing concentrations” value in [11] (1, 3 and 10 μM on PE2-3, FIG. 5A) is “decrease”. In addition, the “effect of increasing the concentration from 10 μM to 20 μM on PE induction” value in [11] (PE2-3, FIG. 5B) is “no additional effect”. The “dose dependence of effect on Pdx1/Nkx6.1 double positive cells” value in assay [11] (range from 0.5 μM to 20 μM on PE2-3) is given as “dose-responsive”.

With AM580, in assay [1] (setting [12]), the Pdx1/Nkx6.1 double positive is listed as ~ 14%. In [2], the DLK1 expression entry is recorded as “marked down regulation”, the NeuroD expression result was “marked increase”, the Ngn3 expression entry is “marked increase” and the Nkx6.1 expression result was “marked down regulation”. For the same compound, the PTF1A expression entry in assay [2] is reported as “marked down regulation”.
